Results as given in paper PMC6153800, “Structure-Based Drug Design and Characterization of Sulfonyl-Piperazine Benzothiazinone Inhibitors of DprE1 from Mycobacterium tuberculosis” (Antimicrobial Agents and Chemotherapy, 2018).
≈ marks a conversion by molar mass, not a printed value.

tested on: M. tuberculosis NTB1 (DprE1 C387S mutant); assay type: cell-based, Mycobacterium tuberculosis

Structure (SMILES) | MIC99 NTB1
O=c1nc(N2CCN(CC3CCCCC3)CC2)sc2c([N+](=O)[O-])cc(C(F)(F)F)cc12 [PBTZ169, macozinone, reference compound] | >100 µg/mL
CO[C@H]1/C=C/O[C@@]2(C)Oc3c(C)c(O)c4c(O)c(c(/C=N/N5CCN(C)CC5)c(O)c4c3C2=O)NC(=O)/C(C)=C\C=C\[C@H](C)[C@H](O)[C@@H](C)[C@@H](O)[C@@H](C)[C@H](OC(C)=O)[C@@H]1C [Rifampin, reference compound] | 0.0008 µg/mL (≈ 0.000972 µM)
O=c1nc(N2CCN(S(=O)(=O)c3cccs3)CC2)sc2c([N+](=O)[O-])cc(C(F)(F)F)cc12 [compound 11326059] | >100 µg/mL
O=c1nc(N2CCN(S(=O)(=O)C3CCCCC3)CC2)sc2c([N+](=O)[O-])cc(C(F)(F)F)cc12 [compound 11326127] | >100 µg/mL
O=c1nc(N2CCN(S(=O)(=O)C3CC3)CC2)sc2c([N+](=O)[O-])cc(C(F)(F)F)cc12 [compound 11626091] | 14.7 µg/mL (≈ 31.7 µM)
CCS(=O)(=O)N1CCN(c2nc(=O)c3cc(C(F)(F)F)cc([N+](=O)[O-])c3s2)CC1 [compound 11626092] | 25.1 µg/mL (≈ 55.5 µM)
CCCCS(=O)(=O)N1CCN(c2nc(=O)c3cc(C(F)(F)F)cc([N+](=O)[O-])c3s2)CC1 [compound 11626093] | >100 µg/mL
O=c1nc(N2CCN(S(=O)(=O)c3cccc4cnccc34)CC2)sc2c([N+](=O)[O-])cc(C(F)(F)F)cc12 [compound 11626094] | >100 µg/mL
CS(=O)(=O)N1CCN(c2nc(=O)c3cc(C(F)(F)F)cc([N+](=O)[O-])c3s2)CC1 [compound 11626095] | 75 µg/mL (≈ 171 µM)
